Measurements as given in ChEMBL document CHEMBL1201862, “PubChem BioAssay data set” (2004).
Activity calls are given as the source filed them.

Experiments:
[1] = biological target: T1, Replicative DNA helicase DnaB (Mycobacterium tuberculosis, UniProt P9WMR3); experiment: DnaB intein splicing inhibitors, dose response, biochemical, cell-free fluorescence (AID 449749); format: functional
T1 sequence (P9WMR3 whole entry): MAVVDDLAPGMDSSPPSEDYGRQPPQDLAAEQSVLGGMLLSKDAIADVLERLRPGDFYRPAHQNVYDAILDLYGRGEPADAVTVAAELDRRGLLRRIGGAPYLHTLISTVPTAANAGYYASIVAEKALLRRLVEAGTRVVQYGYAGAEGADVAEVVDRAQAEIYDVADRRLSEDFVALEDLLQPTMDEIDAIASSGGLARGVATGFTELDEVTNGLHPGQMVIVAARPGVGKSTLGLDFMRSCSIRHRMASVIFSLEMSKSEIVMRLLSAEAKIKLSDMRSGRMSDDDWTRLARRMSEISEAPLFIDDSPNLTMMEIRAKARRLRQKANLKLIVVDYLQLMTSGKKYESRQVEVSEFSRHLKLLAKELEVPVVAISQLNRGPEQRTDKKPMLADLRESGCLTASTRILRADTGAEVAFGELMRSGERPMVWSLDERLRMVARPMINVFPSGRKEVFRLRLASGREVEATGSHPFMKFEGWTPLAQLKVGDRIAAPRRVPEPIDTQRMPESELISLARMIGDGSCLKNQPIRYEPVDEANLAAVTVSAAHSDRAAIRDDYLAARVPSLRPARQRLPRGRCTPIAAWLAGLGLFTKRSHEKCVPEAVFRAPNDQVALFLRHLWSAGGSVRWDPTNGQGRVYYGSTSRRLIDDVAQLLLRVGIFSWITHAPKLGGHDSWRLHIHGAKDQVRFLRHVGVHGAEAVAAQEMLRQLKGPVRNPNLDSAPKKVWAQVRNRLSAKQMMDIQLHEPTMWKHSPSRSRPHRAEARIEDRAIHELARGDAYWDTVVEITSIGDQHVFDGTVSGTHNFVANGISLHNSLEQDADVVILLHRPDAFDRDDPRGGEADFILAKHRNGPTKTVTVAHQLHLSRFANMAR

[2] = compounds quenching green fluorescent protein signal – biochemical, plate reader, dry powder, artefact control, dose response (AID 493243)
cells = format: functional
Protein RecA [3] = biological target: T2, Protein RecA (Mycobacterium tuberculosis, UniProt P9WHJ3); experiment: RecA Intein Measured in Biochemical System Using Plate Reader - 2047-02_Inhibitor_Dose_DryPowder_Activity. [Related pubchem assays (depositor defined):AID2223]; design: species or system Mycobacterium tuberculosis H37Rv
T2 sequence (P9WHJ3 whole entry): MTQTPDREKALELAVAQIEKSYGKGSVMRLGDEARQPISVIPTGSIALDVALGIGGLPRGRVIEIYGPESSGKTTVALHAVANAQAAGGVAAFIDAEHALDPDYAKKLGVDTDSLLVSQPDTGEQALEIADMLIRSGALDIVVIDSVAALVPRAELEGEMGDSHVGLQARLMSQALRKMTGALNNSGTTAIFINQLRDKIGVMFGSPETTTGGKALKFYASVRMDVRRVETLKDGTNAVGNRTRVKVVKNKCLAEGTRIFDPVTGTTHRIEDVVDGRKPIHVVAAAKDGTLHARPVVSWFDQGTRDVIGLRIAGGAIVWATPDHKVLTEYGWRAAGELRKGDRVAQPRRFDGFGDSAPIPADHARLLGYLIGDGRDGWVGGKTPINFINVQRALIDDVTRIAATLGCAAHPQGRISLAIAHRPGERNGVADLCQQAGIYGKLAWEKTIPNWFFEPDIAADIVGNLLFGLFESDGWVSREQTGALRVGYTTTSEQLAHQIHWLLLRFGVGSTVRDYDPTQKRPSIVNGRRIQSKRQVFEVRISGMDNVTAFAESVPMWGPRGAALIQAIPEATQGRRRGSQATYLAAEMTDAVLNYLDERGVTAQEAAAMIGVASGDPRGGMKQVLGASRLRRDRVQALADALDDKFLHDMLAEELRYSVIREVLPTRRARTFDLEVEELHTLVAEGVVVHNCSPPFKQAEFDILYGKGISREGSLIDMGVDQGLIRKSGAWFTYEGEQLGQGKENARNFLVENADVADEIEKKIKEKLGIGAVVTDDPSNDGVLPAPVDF

Protein RecA [4] = biological target: T2, Protein RecA; experiment: Fluorescence Cell-Free Homogeneous Dose Retest to Identify Inhibitors of RecA-Intein Splicing Activity. [Related pubchem assays (depositor defined):AID2097, AID2223, AID489010, AID492950]; format: functional
[5] = biological target: T1, Replicative DNA helicase DnaB; experiment: DnaB Intein secondary assay Measured in Biochemical System Using Plate Reader - 2047-04_Inhibitor_Dose_DryPowder_Activity. [Related pubchem assays (depositor defined):AID2223]
H4 = experiment: Luminescence Cell-Based Dose Response HTS to Identify Activators of 5'UTR Stem-Loop Driven Prion Protein mRNA Translation in H4 Neuroglioblastoma Cells. [Related pubchem assays: 1829 (Project Summary), 1814 (Primary HTS)]; format: functional; conditions: Homo sapiens
[6] = biological target: Sphingosine 1-phosphate receptor 4 (Homo sapiens, UniProt O95977); experiment: Fluorescence dose response cell-based high throughput screening assay for agonists of the Sphingosine 1-Phosphate Receptor 4 (S1P4). [Related pubchem assays: 1509 (Primary screen.), 1523 (Confirmation screen in triplicates.)]; format: functional
[7] = Luminescence Cell-Based Dose Response HTS to Identify Activators of Luciferase Translation or Activity in H4 […] Cells. [Related pubchem assays: 1829 (Project Summary), 1814 (Primary HTS)]; format: functional
[8] = Luminescence Cell-Based Dose Confirmation HTS to Identify Activators of 5'UTR Stem-Loop Driven Alpha-Synuclein mRNA Translation in H4 Neuroglioblastoma Cells. [Related pubchem assays: 1829 (Project Summary), 1814 (Primary HTS)]; format: functional
[9] = biological target: Sphingosine 1-phosphate receptor 1 (Homo sapiens, UniProt P21453); experiment: Fluorescence-based counterscreen assay for S1P4 agonists: Cell-based dose response high throughput screening assay to identify agonists of the Sphingosine 1-Phosphate Receptor 1 (S1P1). [Related pubchem assays (depositor defined):AID1509, AID1523, AID1801, AID463107, AID463118, AID463119, AID463122, AID463123, AID463129, AID463225, AID504400, AID504460]; format: functional
[10] = biological target: T3, Tyrosine-protein phosphatase non-receptor type 22 (Homo sapiens, UniProt Q9Y2R2); format: functional
T3 sequence (Q9Y2R2 whole entry): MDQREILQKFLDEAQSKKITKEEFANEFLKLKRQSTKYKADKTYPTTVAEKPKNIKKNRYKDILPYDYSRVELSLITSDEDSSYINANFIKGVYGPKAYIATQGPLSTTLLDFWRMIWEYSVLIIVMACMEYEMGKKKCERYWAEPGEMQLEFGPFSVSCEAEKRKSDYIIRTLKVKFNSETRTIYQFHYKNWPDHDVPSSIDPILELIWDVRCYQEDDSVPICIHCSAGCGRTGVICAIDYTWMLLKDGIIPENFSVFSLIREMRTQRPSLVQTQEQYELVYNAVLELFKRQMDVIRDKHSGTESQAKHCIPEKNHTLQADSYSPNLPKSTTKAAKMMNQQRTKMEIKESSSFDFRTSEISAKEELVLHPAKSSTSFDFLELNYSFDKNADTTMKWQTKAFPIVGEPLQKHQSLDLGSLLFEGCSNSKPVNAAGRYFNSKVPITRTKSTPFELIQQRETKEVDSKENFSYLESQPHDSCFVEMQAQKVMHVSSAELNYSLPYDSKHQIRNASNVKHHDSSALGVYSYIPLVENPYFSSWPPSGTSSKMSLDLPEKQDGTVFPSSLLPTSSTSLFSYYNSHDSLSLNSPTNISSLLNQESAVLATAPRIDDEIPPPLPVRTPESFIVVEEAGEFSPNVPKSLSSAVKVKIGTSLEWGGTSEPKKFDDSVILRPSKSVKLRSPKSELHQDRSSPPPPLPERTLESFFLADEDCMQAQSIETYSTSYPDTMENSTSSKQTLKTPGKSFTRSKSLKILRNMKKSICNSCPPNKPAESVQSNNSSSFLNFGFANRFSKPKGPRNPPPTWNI

[11] = biological target: T4, Tyrosine-protein phosphatase non-receptor type 7 (Homo sapiens, UniProt P35236); format: functional
T4 sequence (P35236 whole entry): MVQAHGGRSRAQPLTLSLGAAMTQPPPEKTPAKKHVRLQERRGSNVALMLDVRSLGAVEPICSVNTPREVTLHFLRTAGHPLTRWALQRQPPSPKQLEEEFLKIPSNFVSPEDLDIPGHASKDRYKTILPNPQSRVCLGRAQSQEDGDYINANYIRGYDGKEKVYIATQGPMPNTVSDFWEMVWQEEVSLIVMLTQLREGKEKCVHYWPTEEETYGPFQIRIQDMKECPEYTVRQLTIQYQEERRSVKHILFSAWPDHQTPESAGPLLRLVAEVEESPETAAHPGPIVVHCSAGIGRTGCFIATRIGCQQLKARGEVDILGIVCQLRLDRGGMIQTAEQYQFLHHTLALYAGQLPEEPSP

[12] = biological target: T3, Tyrosine-protein phosphatase non-receptor type 22; format: functional; remark: listed apart in the source
Mu-type opioid receptor [13] = biological target: T5, Mu-type opioid receptor (Homo sapiens, UniProt P35372); experiment: SAR Analysis of Agonists of the MOR Receptor using an Image-Based Assay - Set 3. [Related pubchem assays (depositor defined):AID1777, AID1785, AID1786, AID1966, AID2133, AID2136, AID2284, AID2285, AID2352]; format: functional
[14] = biological target: T6, Delta-type opioid receptor (Homo sapiens, UniProt P41143); experiment: SAR Analysis of Agonists of the DOR Receptor using an Image-Based Assay - Set 3. [Related pubchem assays (depositor defined):AID1777, AID1786]; format: functional
[15] = biological target: T7, Kappa-type opioid receptor (Homo sapiens, UniProt P41145); experiment: SAR analysis of small molecule agonists of the kappa opioid receptor via a luminescent beta-arrestin assay - Set 3. [Related pubchem assays (depositor defined):AID1777, AID1785, AID1786, AID1966, AID2133, AID2136, AID2284, AID2500]; format: functional
[16] = biological target: T7, Kappa-type opioid receptor; experiment: kappa opioid receptor activation by imaging – image-based, set 3, SAR follow-up (AID 488833); format: functional
[17] = biological target: T6, Delta-type opioid receptor; experiment: HTS Image-Based Screen for Antagonists of the DOR Receptor. [Related pubchem assays (depositor defined):AID1777, AID1785, AID1786, AID2133]; format: functional
Beta-galactosidase = Beta-galactosidase (Escherichia coli, UniProt Q8VNN2); format: functional
Mu-type opioid receptor [18] = biological target: T5, Mu-type opioid receptor; experiment: HTS Image-Based Screen for Agonists of the MOR Receptor. [Related pubchem assays (depositor defined):AID1777, AID1785, AID1786, AID2133]; format: functional
Vero [19] = experiment: cells; format: functional, cell-based; conditions: Chlorocebus sabaeus
Vero [20] = experiment: cells; format: functional; conditions: Chlorocebus sabaeus
[21] = biological target: T7, Kappa-type opioid receptor; format: functional
[22] = biological target: T6, Delta-type opioid receptor; experiment: HTS Image-Based Screen for Agonists of the DOR Receptor. [Related pubchem assays (depositor defined):AID1777, AID1786, AID2133]; format: functional
[23] = biological target: T8, Rac GTPase-activating protein 1 (Homo sapiens, UniProt Q9H0H5); experiment: blockers of MgcRacGAP-driven Rac1 GTP hydrolysis – biochemical, ADP Hunter fluorescence, primary and confirmatory, confirmation (AID 624330); format: functional
T8 sequence (Q9H0H5 whole entry): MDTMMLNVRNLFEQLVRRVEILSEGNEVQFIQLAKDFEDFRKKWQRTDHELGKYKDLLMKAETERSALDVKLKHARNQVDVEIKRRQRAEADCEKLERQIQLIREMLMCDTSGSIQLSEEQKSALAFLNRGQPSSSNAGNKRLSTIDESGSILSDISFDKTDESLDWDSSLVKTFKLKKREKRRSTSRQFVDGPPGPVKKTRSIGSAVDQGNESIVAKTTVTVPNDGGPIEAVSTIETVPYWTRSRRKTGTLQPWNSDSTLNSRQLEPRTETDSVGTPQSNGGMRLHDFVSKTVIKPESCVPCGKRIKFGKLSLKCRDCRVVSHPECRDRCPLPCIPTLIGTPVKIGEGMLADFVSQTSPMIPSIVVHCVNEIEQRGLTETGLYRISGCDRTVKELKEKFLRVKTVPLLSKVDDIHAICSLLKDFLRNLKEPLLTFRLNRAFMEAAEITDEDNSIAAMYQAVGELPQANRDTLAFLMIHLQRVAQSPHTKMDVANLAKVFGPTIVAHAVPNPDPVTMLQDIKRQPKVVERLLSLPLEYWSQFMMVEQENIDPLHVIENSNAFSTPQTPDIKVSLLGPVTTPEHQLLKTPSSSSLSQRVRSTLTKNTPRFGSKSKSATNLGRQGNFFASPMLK

[24] = biological target: T7, Kappa-type opioid receptor; format: functional; remark: listed apart in the source

T7 sequence (P41145 whole entry): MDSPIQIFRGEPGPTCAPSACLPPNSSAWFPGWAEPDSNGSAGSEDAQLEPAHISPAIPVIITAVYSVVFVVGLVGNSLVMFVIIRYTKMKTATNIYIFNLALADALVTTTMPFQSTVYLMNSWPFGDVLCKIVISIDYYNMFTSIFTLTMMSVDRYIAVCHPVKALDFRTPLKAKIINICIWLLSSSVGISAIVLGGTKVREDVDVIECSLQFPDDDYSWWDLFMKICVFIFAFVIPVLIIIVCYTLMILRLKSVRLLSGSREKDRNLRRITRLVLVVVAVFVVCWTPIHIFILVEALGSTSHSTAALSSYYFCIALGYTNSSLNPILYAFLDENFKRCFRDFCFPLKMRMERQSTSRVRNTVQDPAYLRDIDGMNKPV
T6 sequence (P41143 whole entry): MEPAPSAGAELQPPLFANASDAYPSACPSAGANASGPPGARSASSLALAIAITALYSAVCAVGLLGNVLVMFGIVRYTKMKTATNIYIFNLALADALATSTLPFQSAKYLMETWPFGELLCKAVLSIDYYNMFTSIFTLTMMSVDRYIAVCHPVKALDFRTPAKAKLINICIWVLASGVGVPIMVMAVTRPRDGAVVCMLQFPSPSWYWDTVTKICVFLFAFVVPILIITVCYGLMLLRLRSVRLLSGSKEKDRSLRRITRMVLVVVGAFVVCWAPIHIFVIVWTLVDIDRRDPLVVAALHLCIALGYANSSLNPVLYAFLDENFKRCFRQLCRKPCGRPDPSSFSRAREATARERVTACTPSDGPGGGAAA
T5 sequence (P35372 whole entry): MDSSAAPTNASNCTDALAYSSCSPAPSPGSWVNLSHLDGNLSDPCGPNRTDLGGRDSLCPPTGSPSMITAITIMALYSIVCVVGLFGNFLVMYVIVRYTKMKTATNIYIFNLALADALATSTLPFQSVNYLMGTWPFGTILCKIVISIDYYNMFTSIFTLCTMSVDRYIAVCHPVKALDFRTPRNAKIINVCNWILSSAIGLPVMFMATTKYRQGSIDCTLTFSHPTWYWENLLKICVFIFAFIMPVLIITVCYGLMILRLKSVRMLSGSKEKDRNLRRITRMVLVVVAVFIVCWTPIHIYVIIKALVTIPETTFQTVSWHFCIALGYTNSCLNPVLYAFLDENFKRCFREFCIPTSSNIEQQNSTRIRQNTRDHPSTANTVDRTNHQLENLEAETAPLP
Sequence of Beta-galactosidase (Q8VNN2 whole entry): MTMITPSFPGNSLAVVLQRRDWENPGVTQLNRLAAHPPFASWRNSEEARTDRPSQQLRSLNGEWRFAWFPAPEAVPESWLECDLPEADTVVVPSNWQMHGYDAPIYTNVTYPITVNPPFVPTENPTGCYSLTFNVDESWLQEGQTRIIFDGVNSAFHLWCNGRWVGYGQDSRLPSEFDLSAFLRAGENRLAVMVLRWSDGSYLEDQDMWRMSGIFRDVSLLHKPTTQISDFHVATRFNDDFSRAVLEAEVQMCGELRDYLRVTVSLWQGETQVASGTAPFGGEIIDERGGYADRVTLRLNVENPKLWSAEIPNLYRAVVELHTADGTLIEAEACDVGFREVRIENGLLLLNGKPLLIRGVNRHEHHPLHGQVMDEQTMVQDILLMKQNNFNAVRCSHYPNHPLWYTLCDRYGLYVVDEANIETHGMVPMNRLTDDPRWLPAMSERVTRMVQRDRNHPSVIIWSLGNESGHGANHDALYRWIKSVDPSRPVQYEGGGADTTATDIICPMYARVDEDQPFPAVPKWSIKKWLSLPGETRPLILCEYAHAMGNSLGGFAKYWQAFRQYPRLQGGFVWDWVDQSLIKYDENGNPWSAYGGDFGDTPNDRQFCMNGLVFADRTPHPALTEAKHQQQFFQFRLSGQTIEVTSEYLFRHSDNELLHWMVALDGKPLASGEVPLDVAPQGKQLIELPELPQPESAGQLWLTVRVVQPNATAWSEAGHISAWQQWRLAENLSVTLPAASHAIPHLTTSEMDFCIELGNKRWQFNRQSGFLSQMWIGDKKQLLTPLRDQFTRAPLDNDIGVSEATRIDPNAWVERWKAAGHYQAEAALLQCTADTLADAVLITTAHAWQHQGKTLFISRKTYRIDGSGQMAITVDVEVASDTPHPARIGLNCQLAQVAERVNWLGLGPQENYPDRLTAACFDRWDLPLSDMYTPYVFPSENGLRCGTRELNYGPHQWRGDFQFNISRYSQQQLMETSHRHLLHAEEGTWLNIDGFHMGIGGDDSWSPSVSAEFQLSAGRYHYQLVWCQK
Sequence of Sphingosine 1-phosphate receptor 1 (P21453 whole entry): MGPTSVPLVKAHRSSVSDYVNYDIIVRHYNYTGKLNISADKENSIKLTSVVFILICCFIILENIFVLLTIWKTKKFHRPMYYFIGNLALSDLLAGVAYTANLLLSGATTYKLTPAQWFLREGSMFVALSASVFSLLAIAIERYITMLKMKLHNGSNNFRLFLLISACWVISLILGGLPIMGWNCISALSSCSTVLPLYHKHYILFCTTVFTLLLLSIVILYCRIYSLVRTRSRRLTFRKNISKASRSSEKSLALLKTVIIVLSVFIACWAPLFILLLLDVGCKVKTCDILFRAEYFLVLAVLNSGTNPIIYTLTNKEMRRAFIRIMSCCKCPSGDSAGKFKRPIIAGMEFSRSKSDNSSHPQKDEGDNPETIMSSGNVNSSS
Sequence of Sphingosine 1-phosphate receptor 4 (O95977 whole entry): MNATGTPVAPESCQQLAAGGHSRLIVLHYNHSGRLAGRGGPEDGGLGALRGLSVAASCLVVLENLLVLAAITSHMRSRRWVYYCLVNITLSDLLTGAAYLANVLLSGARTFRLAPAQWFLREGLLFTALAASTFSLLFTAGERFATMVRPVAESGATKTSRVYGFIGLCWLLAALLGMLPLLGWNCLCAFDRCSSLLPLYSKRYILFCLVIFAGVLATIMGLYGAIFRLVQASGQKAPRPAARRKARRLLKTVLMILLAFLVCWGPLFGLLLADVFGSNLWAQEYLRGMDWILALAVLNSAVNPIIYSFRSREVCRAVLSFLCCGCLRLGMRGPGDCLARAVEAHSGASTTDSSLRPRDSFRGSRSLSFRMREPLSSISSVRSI

## C/C(=N\NC(=O)c1ccncc1)c1cc2ccccc2oc1=O
[1]
  AC50: 2.77 µM (active)
[2]
  AC50: 218 µM (active)
cells
  IC50: 0.55 µM (active)
Protein RecA [3]
  AC50: 3.08 µM (active)
Protein RecA [4]
  EC50: 2.86 µM (active)
[5]
  AC50: 36.9 µM (active)

## CC(=O)Oc1ccc2cc(-c3nc4ccccc4n3C)c(=O)oc2c1
H4
  EC50: 4.66 µM (active)
[6]
  EC50: 191 µM (not active)
[7]
  EC50: 53.2 µM (active)
[8]
  EC50: 94.4 µM (active)
[9]
  EC50: > 49.8 µM (inactive)

## COc1ccc(C2SCC(=O)N2CCCN(C)C)cc1 (configuration not stated)
[10]
  IC50: > 79.4 µM (inactive)
[11]
  IC50: > 79.4 µM (inactive)
[12]
  IC50: > 79.4 µM (inactive)

## CC(=O)Oc1ccc(CSc2nnc(-c3ccccn3)n2Cc2cccs2)cc1
Mu-type opioid receptor [13]
  EC50: > 32 µM (inactive)
[14]
  EC50: > 32 µM (inactive)
[15]
  EC50: > 20 µM (inactive)
[16]
  EC50: > 32 µM (inactive)

## COc1cc(/C=C/c2ccc3cccc(O)c3n2)ccc1O
[17]
  IC50: > 32 µM (inactive)
Beta-galactosidase
  EC50: > 31.5 µM (inactive)
Mu-type opioid receptor [18]
  EC50: > 32 µM (inactive)
Vero [19]
  IC50: > 25 µM (active)
Vero [20]
  CC50: 12.4 µM (active)
[21]
  IC50: 11.9 µM (active)
[22]
  EC50: > 32 µM (inactive)
[23]
  IC50: 72.4 µM (active)
[24]
  IC50: > 32 µM
